“Also recorded” adds a separate entry of the source. Read-outs that look alike come from different tables or passages of the source.
Experiments:
E. coli DH5α/pBC-NDM-1 = assay: Susceptibility and checkerboard testing, NDM-1-producing E. coli; format: cell-based, Escherichia coli; conditions: for MIC: Escherichia coli
Experimental: (§1) MICs were determined via the microdilution method according to the CLSI guidelines ([38]). In brief, 5 × 10^4 bacterial cells were inoculated in 100 μl of cation-adjusted Mueller-Hinton broth (Becton, Dickinson and Company, Franklin Lakes, NJ) containing the β-lactams and appropriately diluted inhibitors. The final concentration of DMSO was maintained at 2% in the assays. The tested plates were then incubated at 35°C for 16 to 20 h. The MIC value was determined as the lowest concentration of tested β-lactams where no bacterial growth was visibly observed. The optical density at 600 nm (OD600) value was measured using a plate reader for drawing the heat maps. The FIC index value was calculated using the following equation: FIC index=MIC of β-lactam with inhibitor/MIC of β-lactam alone+MIC of inhibitor with β-lactam/MIC of inhibitor alone
(§2) Unless noted otherwise, the FIC index was defined as the lowest value among all obtained values. The synergistic effect was defined as the effect observed when the FIC index value was ≤0.5.

CMY-2 = target: T1, CMY-2 (Klebsiella pneumoniae, UniProt Q48434); assay: Serine β-lactamase inhibition, nitrocefin hydrolysis by CMY-2; format: biochemical; conditions: nitrocefin 100 μM
T1 construct: made in house; host or cells: E. coli BL21(DE3)
T1 sequence (Q48434 21-381, species assumed): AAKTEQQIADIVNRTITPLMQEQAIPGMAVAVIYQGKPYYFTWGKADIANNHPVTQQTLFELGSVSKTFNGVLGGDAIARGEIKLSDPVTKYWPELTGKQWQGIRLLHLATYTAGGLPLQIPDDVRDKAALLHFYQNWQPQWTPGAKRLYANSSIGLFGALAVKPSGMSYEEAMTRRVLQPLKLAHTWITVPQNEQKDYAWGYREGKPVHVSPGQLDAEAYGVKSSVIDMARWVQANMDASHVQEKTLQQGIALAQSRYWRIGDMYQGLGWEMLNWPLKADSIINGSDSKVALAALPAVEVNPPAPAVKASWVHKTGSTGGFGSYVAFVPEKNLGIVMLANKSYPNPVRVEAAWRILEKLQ
Experimental: (§3) The serine–β-lactamases (1 nM) TLA-3, CMY-2, and OXA-48 were mixed with SFC in 100 mM phosphate buffer (pH 7.0) and incubated for 5 min at 30°C. Nitrocefin was added to reach a concentration of 100 μM, and the velocity of nitrocefin hydrolysis was monitored at 482 nm. Avibactam (MedKoo Bioscience, Morrisville, NC) was used as an inhibitor for serine–β-lactamases. The inhibitory effect of SFC against ACE was evaluated using ACE Kit-WST (Dojindo Laboratories, Kumamoto, Japan). The residual ACE activity was calculated as described in the manufacturer’s protocol as follows: [1 − (Acontrol − Asample)/(Acontrol − Abackground)] × 100. EDTA solution (Nippon Gene, Tokyo, Japan) was used as an ACE inhibitor.

NDM-1 = target: T2, NDM-1 (Klebsiella pneumoniae, UniProt C7C422); assay: Inhibition of IPM hydrolysis by purified NDM-1, Ki by Lineweaver-Burk plots; format: biochemical; conditions: IPM as substrate, competitive model, mean of three replicates; read-out: Inhibition constant Ki NDM-1
T2 construct: made in house
T2 sequence (C7C422 29-270 limits assumed): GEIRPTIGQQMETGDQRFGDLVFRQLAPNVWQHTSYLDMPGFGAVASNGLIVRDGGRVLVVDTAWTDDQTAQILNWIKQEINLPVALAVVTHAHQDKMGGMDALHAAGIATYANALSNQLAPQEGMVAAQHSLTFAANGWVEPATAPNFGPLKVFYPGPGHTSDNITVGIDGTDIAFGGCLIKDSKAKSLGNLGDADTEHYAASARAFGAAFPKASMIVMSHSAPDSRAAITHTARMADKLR
Experimental: (§4) MBL (10 nM) was mixed with the inhibitors and incubated for 5 min at 30°C. IPM was added to reach a concentration of 150 μM, and the velocity of IPM hydrolysis was monitored at 298 nm. The assay was performed at 30°C using 10 mM HEPES (pH 7.5) buffer containing 200 mM NaCl and 50 μg/ml bovine serum albumin (BSA) for IMP-1, NDM-1, VIM-2, and SMB-1. For SFH-1 and L1, another 10 mM HEPES (pH 7.5) buffer containing 200 mM NaCl, 20 μM ZnSO4, and 50 μg/ml BSA was used.
(§5) Initial velocities (vo) were measured after varying the concentrations of IPM and inhibitors, and inverse velocities (1/vo) were plotted against inverse IPM concentrations […]. Lineweaver-Burk plots were constructed to obtain the inhibition constant (Ki) with the competitive inhibition model using the SigmaPlot 13 suite (Hulinks).

OXA-48 = target: T3, OXA-48 (Klebsiella pneumoniae, UniProt Q6XEC0); assay: Serine β-lactamase inhibition, nitrocefin hydrolysis by OXA-48; format: biochemical; conditions: nitrocefin 100 μM
T3 construct: made in house; host or cells: E. coli BL21(DE3)pLysS
T3 sequence (Q6XEC0 23-265, looked up, species assumed): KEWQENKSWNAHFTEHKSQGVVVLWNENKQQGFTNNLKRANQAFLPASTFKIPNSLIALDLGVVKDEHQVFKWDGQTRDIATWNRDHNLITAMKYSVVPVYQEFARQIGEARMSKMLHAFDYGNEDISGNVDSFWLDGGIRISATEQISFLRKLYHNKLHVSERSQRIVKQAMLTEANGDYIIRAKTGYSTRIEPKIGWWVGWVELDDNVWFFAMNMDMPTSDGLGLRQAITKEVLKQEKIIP
Experimental: as §3

IMP-1 = target: T4, IMP-1 (Serratia marcescens, UniProt P52699); assay: Inhibition of IPM hydrolysis by purified IMP-1, Ki by Lineweaver-Burk plots; format: biochemical
T4 construct: made in house
T4 sequence (P52699 19-246 limits assumed): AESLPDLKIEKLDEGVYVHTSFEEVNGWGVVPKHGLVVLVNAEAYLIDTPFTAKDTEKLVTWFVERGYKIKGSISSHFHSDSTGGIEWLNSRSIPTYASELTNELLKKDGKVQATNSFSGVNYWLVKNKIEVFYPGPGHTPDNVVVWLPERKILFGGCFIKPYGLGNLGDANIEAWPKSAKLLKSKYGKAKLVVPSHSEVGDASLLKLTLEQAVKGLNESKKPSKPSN
Experimental: as §4, §5

[1] = tested on: Salmonella enterica serovar Typhimurium TA98 and TA100, E. coli WP2uvrA; assay: Ames test (reverse mutation assay)
Experimental: Bacterial strains of Salmonella enterica serovar Typhimurium TA98 and TA100 as well as E. coli WP2uvrA were analyzed using the reverse mutation assay, which was performed by UBE Scientific Analysis Laboratory (Tokyo, Japan).

[2] = tested on: E. coli BL21(DE3)/pET-KHM-1; assay: Susceptibility testing, KHM-1-producing E. coli; format: cell-based; conditions: Escherichia coli
Experimental: as §1

E. coli DH5α/pBC-VIM-2 = assay: Susceptibility and checkerboard testing, VIM-2-producing E. coli; format: cell-based, Escherichia coli; conditions: for MIC: Escherichia coli
Experimental: as §1, §2

E. coli DH5α/pBC-TMB-2 = assay: Susceptibility testing, TMB-2-producing E. coli; format: cell-based; conditions: Escherichia coli
Experimental: as §1

TLA-3 = assay: Serine β-lactamase inhibition, nitrocefin hydrolysis by TLA-3; format: biochemical; conditions: nitrocefin 100 μM
Experimental: as §3

[3] = tested on: P. aeruginosa PAO1/pME-VIM-2; assay: Susceptibility testing, VIM-2-producing P. aeruginosa PAO1; format: cell-based; conditions: Pseudomonas aeruginosa
Experimental: as §1

[4] = Human liver microsomal stability test; format: in vitro ADME; conditions: 100 nM compound, 0.1 mg protein/ml, 35 min, 37°C
Experimental: Human liver microsomal stability tests were performed by Sumika Chemical Analysis Service (Osaka, Japan). Compounds (100 nM) were incubated with human liver microsomes (0.1 mg protein/ml) for 35 min at 37°C and subjected to liquid chromatography-tandem mass spectrometry (LC-MS/MS) for quantification of the loss of the tested compounds.

[5] = tested on: IMP-1-producing E. coli NUBL-24; assay: Mouse infection model, E. coli NUBL-24, survival; format: in vivo, mice
Experimental: All experiments were approved by the Nagoya University Animal Ethics Committee, and all experiments were performed in a manner that minimized animal suffering. Male CD1 mice (4 weeks old; 20 to 25 g body weight) were purchased from Charles River Laboratories Japan (Yokohama, Japan). E. coli NUBL-24 (blaIMP-1) and K. pneumoniae MS5674 (blaNDM-1 and blaVIM-1) strains were inoculated on LB agar plates and grown for 18 h at 37°C. Bacteria were then scraped from the plates, and their concentration was adjusted to 5 × 10^6 to 1 × 10^7 CFU in saline solution containing 5% mucin; this solution was then i.p. injected into the mice. At 1 and 3 h after infection, saline solution, MPM, inhibitors, and a combination of MPM and inhibitor were i.p. injected. Mice were monitored for 7 days to formulate survival curves, after which they were euthanized by CO2 asphyxiation.

SMB-1 = assay: In vitro inhibition assay, IPM hydrolysis by SMB-1; format: biochemical; conditions: even in the presence of 100 μM SFC
Experimental: as §4

[6] = read-out: MIC of MPM + inhibitor (8 μg/ml)
[7] = read-out: MIC of MPM + inhibitor (32 μg/ml)

Cc1oc(C)c(S(N)(=O)=O)c1C(=O)O [SFC, 2,5-dimethyl-4-sulfamoylfuran-3-carboxylic acid]
MIC meropenem + 2 μg/mL compound (E. coli DH5α/pBC-NDM-1; E. coli DH5α/pBC-NDM-1): 16 µg/mL
Reduction in MPM MIC (E. coli DH5α/pBC-NDM-1; E. coli DH5α/pBC-NDM-1, 2 μg/ml compound): 4 fold
MIC (E. coli DH5α/pBC-NDM-1; [6]): 2 µg/mL
MIC (E. coli DH5α/pBC-NDM-1; [7]): ≤ 0.25 µg/mL
FIC index (E. coli DH5α/pBC-NDM-1; checkerboard with MPM, E. coli DH5α/pBC-NDM-1, lowest value): 0.09
Inhibitory effect against CMY-2 (class C) (CMY-2): nonexistent or insufficient
Ki (NDM-1): 9.82 µM
Inhibitory effect against OXA-48 (class D) (OXA-48): nonexistent or insufficient
Ki (IMP-1): 0.22 µM
Ames test, mutagenicity [1]: negative
MIC [2, 6]: 4 µg/mL
MIC [2, 7]: 2 µg/mL
MIC ceftazidime + 2 μg/mL compound (E. coli DH5α/pBC-VIM-2; E. coli DH5α/pBC-VIM-2): 16 µg/mL
Reduction in CAZ MIC (E. coli DH5α/pBC-VIM-2; E. coli DH5α/pBC-VIM-2, 2 μg/ml compound): no reduction
MIC (E. coli DH5α/pBC-VIM-2; read-out: MIC of CAZ + inhibitor (8 μg/ml)): 4 µg/mL
MIC (E. coli DH5α/pBC-VIM-2; read-out: MIC of CAZ + inhibitor (32 μg/ml)): 2 µg/mL
FIC index (E. coli DH5α/pBC-VIM-2; checkerboard with CAZ, E. coli DH5α/pBC-VIM-2, lowest value): 0.31
MIC (E. coli DH5α/pBC-TMB-2; [6]): 0.5 µg/mL
MIC (E. coli DH5α/pBC-TMB-2; [7]): 0.125 µg/mL
Inhibitory effect against TLA-3 (class A) (TLA-3): nonexistent or insufficient
MIC ([3]; PAO1, read-out: MIC of MPM + inhibitor (10 μg/ml)): 32 µg/mL
MIC ([3]; PAO1, read-out: MIC of MPM + inhibitor (50 μg/ml)): 16 µg/mL
Stability in human liver microsomes [4]: did not lead to structural changes; also recorded: high stability
Mice rescued from death at the endpoint ([5]; MPM (0.2 mg/kg)-SFC (100 mg/kg) combination therapy, i.p., 7 days following infection): 90%
Rescue of infected mice by monotherapy ([5]; SFC 100 mg/kg or MPM 0.2 mg/kg i.p. at 1 and 3 h after infection, within 48 h): failed to rescue mice
Inhibition of IPM hydrolyzing activity of SMB-1 (SMB-1): did not inhibit

Reference: PMC7078479, “Sulfamoyl Heteroarylcarboxylic Acids as Promising Metallo-β-Lactamase Inhibitors for Controlling Bacterial Carbapenem Resistance” (mBio, 2020)
